ChEMBL document CHEMBL6109103, “Dodecapeptides derived from human cathelicidin with potent activity against carbapenem-resistant Acinetobacter baumannii” (Eur J Med Chem, 2025)
Converted amounts (≈) assume the structure as drawn. The source made the active and inactive calls. The calls are words filed in the database; no cut-off is given here.

How the values were obtained:
Staphylococcus aureus [1] = experiment: Antibacterial activity against Staphylococcus aureus […] assessed as inhibition of bacterial growth incubated for 24 hrs by broth dilution assay; assay type: functional
HUVEC = experiment: Cytotoxicity against HUVEC cells assessed as cell death up to 50 microg/ml measured up to 24 hrs; assay type: toxicity, cell-based; details: human, up to 50 µg/mL
Staphylococcus aureus [2] = experiment: Antibacterial activity against Methicillin-resistant Staphylococcus aureus ATCC 43300 assessed as inhibition of bacterial growth incubated for 24 hrs by broth dilution assay; assay type: functional
A549 = experiment: Cytotoxicity against human A549 cells assessed as cell death up to 50 microg/ml measured up to 24 hrs; assay type: toxicity, cell-based; details: a549, 24 h, up to 50 µg/mL
Acinetobacter baumannii [3] = experiment: Antibacterial activity against Acinetobacter baumannii ATCC 19606 assessed as inhibition of bacterial growth incubated for 24 hrs by broth dilution assay; assay type: functional
Acinetobacter baumannii [4] = experiment: Antibacterial activity against multidrug-resistant Acinetobacter baumannii assessed as inhibition of bacterial growth incubated for 24 hrs by broth dilution assay; assay type: functional
Lipoteichoic acid = experiment: Binding affinity to […] bacterial Lipoteichoic acid assessed as dissociation constant by BLI analysis; design: species or system Bacteria
Acinetobacter baumannii [5] = experiment: Antibacterial activity against carbapenem-resistant Acinetobacter baumannii clinical isolate 6 assessed as bacterial killing at 3.16 microg/ml measured for 1 hr in presence of NaCl; assay type: functional, organism-based; details: dose 3.16 µg/ml
Acinetobacter baumannii [6] = experiment: Antibacterial activity against carbapenem-resistant Acinetobacter baumannii clinical isolate 5 assessed as inhibition of bacterial growth incubated for 24 hrs by broth dilution assay; assay type: functional
Acinetobacter baumannii [7] = experiment: Antibacterial activity against carbapenem-resistant Acinetobacter baumannii clinical isolate 7 assessed as inhibition of bacterial growth incubated for 24 hrs by broth dilution assay; assay type: functional
Acinetobacter baumannii [8] = experiment: Antibacterial activity against carbapenem-resistant Acinetobacter baumannii clinical isolate 6 assessed as bacterial killing at 3.16 microg/ml measured within 10 mins relative to control; assay type: functional; details: dose 3.16 µg/ml
Acinetobacter baumannii [9] = experiment: Antibacterial activity against carbapenem-resistant Acinetobacter baumannii clinical isolate 2 assessed as inhibition of bacterial growth incubated for 24 hrs by broth dilution assay; assay type: functional
Acinetobacter baumannii [10] = experiment: Antibacterial activity against carbapenem-resistant Acinetobacter baumannii clinical isolate 6 assessed as inhibition of bacterial growth incubated for 24 hrs by broth dilution assay; assay type: functional
Acinetobacter baumannii [11] = experiment: Antibacterial activity against carbapenem-resistant Acinetobacter baumannii clinical isolate 8 assessed as inhibition of bacterial growth incubated for 24 hrs by broth dilution assay; assay type: functional
Acinetobacter baumannii [12] = experiment: Antibacterial activity against carbapenem-resistant Acinetobacter baumannii clinical isolate 3 assessed as inhibition of bacterial growth incubated for 24 hrs by broth dilution assay; assay type: functional
HaCaT = experiment: Cytotoxicity against human HaCaT cells assessed as cell death up to 100 microg/ml measured upto 24 hrs; assay type: toxicity, cell-based; details: dose < 100 µg/ml
Acinetobacter baumannii [13] = experiment: Antibacterial activity against carbapenem-resistant Acinetobacter baumannii clinical isolate 1 assessed as inhibition of bacterial growth incubated for 24 hrs by broth dilution assay; assay type: functional
Acinetobacter baumannii [14] = experiment: Antibacterial activity against carbapenem-resistant Acinetobacter baumannii clinical isolate 4 assessed as inhibition of bacterial growth incubated for 24 hrs by broth dilution assay; assay type: functional
[15] = Binding affinity to gram negative bacterial lipid II assessed as dissociation constant by BLI analysis; design: species or system Bacteria
[16] = Toxicity in BALB/c mouse assessed as kidney damage at 64 mg/kg, ip measured for 3 days by H and E staining based analysis; assay type: organism-based; details: in vivo, 72 h, time 3 day
Escherichia coli = experiment: Antibacterial activity against human Escherichia coli assessed as inhibition of bacterial growth; assay type: functional, organism-based
Acinetobacter baumannii [17] = experiment: Induction of morphological changes in carbapenem-resistant Acinetobacter baumannii at 6.25 microg/ml measured for 24 hrs by SEM analysis; assay type: functional, organism-based; details: dose 6.25 µg/ml
[18] = Toxicity in BALB/c mouse assessed as animal survival at 4 to 64 mg/kg, ip measured for 5 days; assay type: organism-based; details: in vivo, 120 h, dose 4-64 mg/kg, time 5 day
Acinetobacter baumannii [19] = experiment: Synergistic antibacterial activity against carbapenem-resistant Acinetobacter baumannii clinical isolate 6 in presence of tetracycline by microdilution checkerboard assay; assay type: functional, organism-based
[20] = Toxicity in BALB/c mouse assessed as spleen damage at 64 mg/kg, ip measured for 3 days by H and E staining based analysis; assay type: organism-based; details: in vivo, 72 h, time 3 day
[21] = Toxicity in BALB/c mouse assessed as liver damage at 64 mg/kg, ip measured for 3 days by H and E staining based analysis; assay type: organism-based; details: in vivo, 72 h, time 3 day
Acinetobacter baumannii [22] = experiment: Synergistic antibacterial activity against carbapenem-resistant Acinetobacter baumannii clinical isolate 6 in presence of CTX by microdilution checkerboard assay; assay type: functional, organism-based
[23] = Hemolytic activity at mouse RBC assessed as hemolysis; assay type: toxicity, cell-based, Erythrocyte; details: mouse red blood cells, read-out: Activity
proteinase K = experiment: Proteolytic stability assessed as proteinase K (unknown origin)-mediated drug degradation measured for 20 mins by LC-MS analysis; assay type: ADME, Homo sapiens; details: read-out: Drug degradation
Acinetobacter baumannii [24] = experiment: Antibacterial activity against carbapenem-resistant Acinetobacter baumannii clinical isolate 6 assessed as bacterial killing at 3.16 microg/ml measured within 10 mins; assay type: functional, organism-based; details: dose 3.16 µg/ml
[25] = Toxicity in BALB/c mouse assessed as heart damage at 64 mg/kg, ip measured for 3 days by H and E staining based analysis; assay type: organism-based; details: in vivo, 72 h, time 3 day
Acinetobacter baumannii [26] = experiment: Antibacterial activity against carbapenem-resistant Acinetobacter baumannii clinical isolate 6 assessed as bacterial killing at 3.16 microg/ml measured for 10 to 30 mins in presence of mouse serum; assay type: functional, organism-based; details: dose 3.16 µg/ml, time 10-30 min
Cell membrane [27] = experiment: Induction of inner membrane permeabilization in carbapenem-resistant Acinetobacter baumannii clinical isolate 6 at 6.25 microg/ml measured for 1 hr by NPN-dye based assay; details: dose 6.25 µg/ml
Acinetobacter baumannii [28] = experiment: Antibacterial activity against carbapenem-resistant Acinetobacter baumannii clinical isolate 6 infected in BALB/c mouse assessed as survival rate at 1.25 mg/kg, NAS administered once a day for 3 days; assay type: functional; details: 72 h, time 3 day
[29] = Toxicity in BALB/c mouse assessed as lung damage at 64 mg/kg, ip measured for 3 days by H and E staining based analysis; assay type: organism-based; details: in vivo, 72 h, time 3 day
Pseudomonas aeruginosa = experiment: Antibacterial activity against human Pseudomonas aeruginosa assessed as inhibition of bacterial growth; assay type: functional, organism-based
Cell membrane [30] = experiment: Induction of outer membrane permeabilization in carbapenem-resistant Acinetobacter baumannii clinical isolate 6 at 6.25 to 12.5 microg/ml measured for 1 hr by NPN-dye based assay; details: dose 6.25-12.5 µg/ml
[31] = Toxicity in BALB/c mouse assessed as animal survival at 1.25 mg/kg, NAS measured for 5 days; assay type: organism-based; details: in vivo, inhaled or intranasal, time 5 day

CC[C@H](C)[C@H](NC(=O)[C@H](CCCCN)NC(=O)[C@H](CCC(=O)O)NC(=O)[C@H](CCCCN)NC(=O)[C@H](CO)NC(=O)[C@H](CCCCN)NC(=O)[C@H](CCCNC(=N)N)NC(=O)[C@H](Cc1ccccc1)NC(=O)[C@H](Cc1ccccc1)NC(=O)[C@H](CC(=O)O)NC(=O)CNC(=O)[C@H](CC(C)C)NC(=O)[C@@H](N)CC(C)C)C(=O)NCC(=O)N[C@@H](CCCCN)C(=O)N[C@@H](CCC(=O)O)C(=O)N[C@@H](Cc1ccccc1)C(=O)N[C@@H](CCCCN)C(=O)N[C@@H](CCCNC(=N)N)C(=O)N[C@H](C(=O)N[C@H](C(=O)N[C@@H](CCC(N)=O)C(=O)N[C@@H](CCCNC(=N)N)C(=O)N[C@H](C(=O)N[C@@H](CCCCN)C(=O)N[C@@H](CC(=O)O)C(=O)N[C@@H](Cc1ccccc1)C(=O)N[C@@H](CC(C)C)C(=O)N[C@@H](CCCNC(=N)N)C(=O)N[C@@H](CC(N)=O)C(=O)N[C@@H](CC(C)C)C(=O)N[C@H](C(=O)N1CCC[C@H]1C(=O)N[C@@H](CCCNC(=N)N)C(=O)N[C@H](C(=O)N[C@@H](CCC(=O)O)C(=O)N[C@@H](CO)C(=O)O)[C@@H](C)O)C(C)C)[C@@H](C)CC)C(C)C)[C@@H](C)CC [CATHELICIDIN]
MIC (Staphylococcus aureus [1]): > 320 µg/mL
Activity (HUVEC): 29%
MIC (Staphylococcus aureus [2]): 320 µg/mL (≈ 71.2 µM)
Activity (A549): 29%
MIC (Acinetobacter baumannii [3]): 40 µg/mL (≈ 8.9 µM)
MIC (Acinetobacter baumannii [4]): 10 µg/mL (≈ 2.23 µM)

H-KRIVQRIKDFLR-OH
Kd (Lipoteichoic acid): 241 nM
MIC (Staphylococcus aureus [1]): > 320 µg/mL
Activity (Acinetobacter baumannii [5]): inactive
MIC (Acinetobacter baumannii [6]): 160 µg/mL
MIC (Acinetobacter baumannii [7]): 160 µg/mL
Activity (Acinetobacter baumannii [8]): 19.5%
MIC (Staphylococcus aureus [2]): > 320 µg/mL
MIC (Acinetobacter baumannii [9]): 320 µg/mL
MIC (Acinetobacter baumannii [10]): 160 µg/mL
MIC (Acinetobacter baumannii [11]): 160 µg/mL
MIC (Acinetobacter baumannii [3]): > 320 µg/mL
MIC (Acinetobacter baumannii [4]): 160 µg/mL
MIC (Acinetobacter baumannii [12]): 320 µg/mL
Activity (HaCaT): Non-toxic
MIC (Acinetobacter baumannii [13]): 320 µg/mL
MIC (Acinetobacter baumannii [14]): 160 µg/mL
Kd [15]: 171 nM

H-KRIVRRIKIFLR-OH
Kd (Lipoteichoic acid): 48.3 nM
Activity [16]: Non-toxic
Activity (Escherichia coli): Active
MIC (Staphylococcus aureus [1]): 80 µg/mL
Activity (Acinetobacter baumannii [17]): Active
Activity [18]: Non-toxic
Activity (Acinetobacter baumannii [5]): Active
Activity (Acinetobacter baumannii [19]): Active
MIC (Acinetobacter baumannii [6]): 10 µg/mL
Activity [20]: Non-toxic
Activity [21]: Non-toxic
MIC (Acinetobacter baumannii [7]): 10 µg/mL
MIC (Staphylococcus aureus [2]): 80 µg/mL
Activity (Acinetobacter baumannii [22]): Active
hemolysis [23]: < 1%
metabolised at 20 min (proteinase K): 89.4%
Activity (Acinetobacter baumannii [24]): Active
MIC (Acinetobacter baumannii [9]): 20 µg/mL
Activity [25]: Non-toxic
Activity (Acinetobacter baumannii [26]): Active
MIC (Acinetobacter baumannii [10]): 2.5 µg/mL
MIC (Acinetobacter baumannii [11]): 10 µg/mL
Activity (Cell membrane [27]): Active
survival at 1.25 mg/kg (Acinetobacter baumannii [28]): 40%
MIC (Acinetobacter baumannii [3]): 10 µg/mL
MIC (Acinetobacter baumannii [4]): 5 µg/mL
MIC (Acinetobacter baumannii [12]): 5 µg/mL
Activity (HaCaT): Non-toxic
MIC (Acinetobacter baumannii [13]): 10 µg/mL
MIC (Acinetobacter baumannii [14]): 5 µg/mL
Activity [29]: Non-toxic
Activity (Pseudomonas aeruginosa): Active
Activity (Cell membrane [30]): Active
Kd [15]: 7.14 nM
survival at 120 h [31]: 30%
